Assay in all cases: relative viability (nuclei count vs DMSO), 5 days (fraction); higher = more cells survive
Compound in one assay: C1CCC(CC1)N(CCNCCC2=C3C(=C(C=C2)O)NC(=O)CO3)C(=O)CCNCCC4=CC(=C(C=C4)Cl)Cl [AZ505]
In a few lines: (§1)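 Lung cancer cell lines received five library-drug doses (not always all listed) spaced by √10, pinned on vehicle-anchored 1536-well plates after an overnight stay at 37 °C. Five days later, with no medium change, nuclei were Hoechst-stained, imaged at 4× and counted with MetaXpress. Viability is treated-well nuclei relative to vehicle-well nuclei, as a median across plates. Passing plates had control CV below 25% and at least one doubling.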

Compound in the next assay: Cn1c(=O)n(-c2ccc(C(C)(C)C#N)cc2)c2c3cc(-c4cnc5ccccc5c4)ccc3ncc21 [Dactolisib]
In outline:
as §1

Compound in the assay “Dactolisib + Navitoclax”: Cn1c(=O)n(-c2ccc(C(C)(C)C#N)cc2)c2c3cc(-c4cnc5ccccc5c4)ccc3ncc21 [Dactolisib] + CC1(C)CCC(c2ccc(Cl)cc2)=C(CN2CCN(c3ccc(C(=O)NS(=O)(=O)c4ccc(N[C@H](CCN5CCOCC5)CSc5ccccc5)c(S(=O)(=O)C(F)(F)F)c4)cc3)CC2)C1 [Navitoclax] (partner 0.5 µM)
In outline:
(§2)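 Lung cancer cell lines in 1536-well plates were dosed by pin tool the day after seeding, either with one drug alone or with a fixed anchor-drug dose plus five library-drug doses (not always all listed) in √10 steps. After 5 days, cells were fixed and their nuclei stained in one step (final 0.05% Triton X-100, 1% formaldehyde, 1 ug/ml Hoechst), then counted on 4× images. Relative viability is the nuclei count in treated wells divided by that in vehicle wells. Values are medians of duplicate plates.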

Compound in the assay “AZ505 + Trametinib”: C1CCC(CC1)N(CCNCCC2=C3C(=C(C=C2)O)NC(=O)CO3)C(=O)CCNCCC4=CC(=C(C=C4)Cl)Cl [AZ505] + CC(=O)Nc1cccc(-n2c(=O)n(C3CC3)c(=O)c3c(Nc4ccc(I)cc4F)n(C)c(=O)c(C)c32)c1 [Trametinib] (partner 0.02 µM)
In outline: as §2

This is an account of results in the supplement of paper PMC10307832.

For the cell line LCLC-97TM1, the relative viability was found to be 0.893 with AZ505 (0.08 µM); 0.838 with AZ505 (0.253 µM); 0.897 with AZ505 (0.8 µM); 0.759 with AZ505 (2.53 µM); 1.06 in the assay with AZ505 (8 µM); 1.01 in the assay with Dactolisib (0.002 µM). Besides, the relative viability in the assay with Dactolisib (0.006325 µM) stood at 1.02; in the assay with Dactolisib (0.02 µM), 0.9; with Dactolisib (0.06325 µM), 0.802; with Dactolisib (0.2 µM), 0.388; with Dactolisib + Navitoclax (first compound 0.002 µM) it was 0.503; with Dactolisib + Navitoclax (first compound 0.006325 µM), 0.33. Further, the relative viability is 0.3 with Dactolisib + Navitoclax (first compound 0.02 µM); 0.202 in the assay with Dactolisib + Navitoclax (first compound 0.06325 µM); 0.192 in the assay with Dactolisib + Navitoclax (first compound 0.2 µM); 0.208 in the assay with AZ505 + Trametinib (first compound 0.08 µM); 0.156 with AZ505 + Trametinib (first compound 0.253 µM); 0.166 in the assay with AZ505 + Trametinib (first compound 0.8 µM). For the same cell line, the relative viability in the assay with AZ505 + Trametinib (first compound 8 µM) stood at 0.191.
Take EPLC-272H: the relative viability with AZ505 (0.08 µM) was found to be 0.817; with AZ505 (0.253 µM), 0.812; with AZ505 (0.8 µM), 0.755; with AZ505 (2.53 µM), 0.849; in the assay with AZ505 (8 µM), 0.92; with Dactolisib (0.002 µM), 1.01. Also, the relative viability with Dactolisib (0.006325 µM) was determined as 0.766; with Dactolisib (0.02 µM), 0.76; in the assay with Dactolisib (0.06325 µM) it was 0.569; in the assay with Dactolisib (0.2 µM), 0.403; in the assay with Dactolisib + Navitoclax (first compound 0.002 µM), 1.31; with Dactolisib + Navitoclax (first compound 0.006325 µM), 1.01. Further, the relative viability with Dactolisib + Navitoclax (first compound 0.02 µM) amounted to 0.937; with Dactolisib + Navitoclax (first compound 0.06325 µM) it was 0.592; with Dactolisib + Navitoclax (first compound 0.2 µM), 0.365; with AZ505 + Trametinib (first compound 0.08 µM) it was 0.308; with AZ505 + Trametinib (first compound 0.253 µM), 0.292; in the assay with AZ505 + Trametinib (first compound 0.8 µM), 0.307. Moreover, the relative viability came to 0.277 with AZ505 + Trametinib (first compound 2.53 µM) and 0.269 with AZ505 + Trametinib (first compound 8 µM).
As for NCI-H1915, the relative viability with AZ505 (0.08 µM) is 0.954; in the assay with AZ505 (0.253 µM), 1.06; with AZ505 (0.8 µM), 0.945; with AZ505 (2.53 µM), 0.942; with AZ505 (8 µM), 0.949; with Dactolisib (0.002 µM), 1.02. Moreover, the relative viability in the assay with Dactolisib (0.006325 µM) worked out at 1.03; in the assay with Dactolisib (0.02 µM), 1.02; in the assay with Dactolisib (0.06325 µM), 0.657; with Dactolisib (0.2 µM), 0.579; in the assay with Dactolisib + Navitoclax (first compound 0.002 µM) it was 0.783; with Dactolisib + Navitoclax (first compound 0.006325 µM) it was 0.759. The relative viability with Dactolisib + Navitoclax (first compound 0.02 µM) came out at 0.773; in the assay with Dactolisib + Navitoclax (first compound 0.06325 µM), 0.781; with Dactolisib + Navitoclax (first compound 0.2 µM), 0.484; with AZ505 + Trametinib (first compound 0.08 µM), 0.294; with AZ505 + Trametinib (first compound 0.253 µM) it was 0.303; in the assay with AZ505 + Trametinib (first compound 0.8 µM), 0.236. Also, the relative viability with AZ505 + Trametinib (first compound 2.53 µM) came out at 0.266; with AZ505 + Trametinib (first compound 8 µM), 0.301.
Consider NCI-H2405, for which the relative viability with AZ505 (0.08 µM) is 0.769; with AZ505 (0.253 µM), 0.707; in the assay with AZ505 (0.8 µM), 0.784; with AZ505 (2.53 µM), 0.892; with AZ505 (8 µM) it was 0.82; with Dactolisib (0.002 µM), 1.01. Besides, the relative viability with Dactolisib (0.006325 µM) is 0.993; with Dactolisib (0.02 µM), 0.97; with Dactolisib (0.06325 µM) it was 0.607; with Dactolisib (0.2 µM), 0.447; with Dactolisib + Navitoclax (first compound 0.002 µM), 0.727; in the assay with Dactolisib + Navitoclax (first compound 0.006325 µM) it was 0.935. Also, the relative viability is 0.831 with Dactolisib + Navitoclax (first compound 0.02 µM); 0.391 with Dactolisib + Navitoclax (first compound 0.06325 µM); 0.25 in the assay with Dactolisib + Navitoclax (first compound 0.2 µM); 0.487 in the assay with AZ505 + Trametinib (first compound 0.08 µM); 0.615 with AZ505 + Trametinib (first compound 0.8 µM); 0.586 with AZ505 + Trametinib (first compound 2.53 µM). Further, the relative viability in the assay with AZ505 + Trametinib (first compound 8 µM) was determined as 0.603.
Turning to NCI-H322M, the relative viability stood at 0.906 with AZ505 (0.08 µM); 0.824 with AZ505 (0.253 µM); 0.954 with AZ505 (0.8 µM); 0.826 with AZ505 (2.53 µM); 1.02 with AZ505 (8 µM); 1.04 with Dactolisib (0.002 µM). Moreover, the relative viability is 0.931 in the assay with Dactolisib (0.006325 µM); 0.734 with Dactolisib (0.02 µM); 0.702 with Dactolisib (0.06325 µM); 0.579 in the assay with Dactolisib (0.2 µM); 1.22 in the assay with Dactolisib + Navitoclax (first compound 0.002 µM); 1.17 with Dactolisib + Navitoclax (first compound 0.006325 µM). Also, the relative viability was determined as 1.16 with Dactolisib + Navitoclax (first compound 0.02 µM); 0.733 with Dactolisib + Navitoclax (first compound 0.06325 µM); 0.677 with Dactolisib + Navitoclax (first compound 0.2 µM); 0.501 in the assay with AZ505 + Trametinib (first compound 0.08 µM); 0.521 with AZ505 + Trametinib (first compound 0.8 µM); 0.491 with AZ505 + Trametinib (first compound 2.53 µM). Also, the relative viability with AZ505 + Trametinib (first compound 8 µM) stood at 0.486.
